In patent US7300939B2, “Substituted 1-propiolylpiperazine compounds, their preparation and use” (Gruenenthal GmbH, priority 2005, dated 2007):

Biological target: T1, mGluR5 receptor (Sus scrofa, UniProt I3LUI7)
T1 construct: from tissue; host or cells: pig brain halves without medulla, cerebellum and pons
Assay: [3H]-MPEP binding in the mGluR5 receptor binding assay (pig brain homogenate)
Details: for IC50: Table II, unit inferred; for mGluR5-receptor (% inhibition 10 μM) in pigs: pig brain homogenate, 5 nM [3H]-MPEP
Description: I. Method the Determination of the Inhibition of the [^3H]-MPEP Binding in the mGluR5 Receptor Binding Assay
Pig brain homogenate is prepared by homogenization (Polytron PT 3000, Kinematica AG, 10,000 revolutions per minute 90 seconds) of pig brain halves without medulla, cerebellum and pons in a buffer solution having a pH of 8.0 (30 mM of hepes, Sigma, order no. H3375+1 tablet of Complete to 100 ml, Roche Diagnostics, order no. 1836145) in a ratio of 1:20 (brain weight/volume) and differential centrifugation at 900×g and 40,000×g. In each case 450 μg of protein from brain homogenate are incubated with 5 nM [^3H]-MPEP (Tocris, order no. R1212) (MPEP=2-methyl-6-(3-methoxyphenyl)ethynylpyridine) and the compounds to be investigated (10 μM in the test) in a buffer solution (as above) in 250 μl incubation batches in 96-well microtiter plates at room temperature 60 min.
Thereafter, the batches are filtered with the aid of a Brandel cell harvester (Brandel, Robotic 9600 model) onto Unifilter plates with glass fiber filter mats (Perkin Elmer, order no. 6005177) and then rinsed with buffer solution (as above) 3 times with 250 μl per sample each time. The filter plates are then dried 60 min at 55° C. 30 μl Ultima Gold™ scintillator (Packard BioScience, order no. 6013159) are subsequently added per well and, after 3 hours, the samples are measured on a β-counter (Mikrobeta, Perkin Elmer). The non-specific binding is determined by addition of 10 μM of MPEP (Tocris, order no. 1212).

T1 sequence (I3LUI7 19-1212): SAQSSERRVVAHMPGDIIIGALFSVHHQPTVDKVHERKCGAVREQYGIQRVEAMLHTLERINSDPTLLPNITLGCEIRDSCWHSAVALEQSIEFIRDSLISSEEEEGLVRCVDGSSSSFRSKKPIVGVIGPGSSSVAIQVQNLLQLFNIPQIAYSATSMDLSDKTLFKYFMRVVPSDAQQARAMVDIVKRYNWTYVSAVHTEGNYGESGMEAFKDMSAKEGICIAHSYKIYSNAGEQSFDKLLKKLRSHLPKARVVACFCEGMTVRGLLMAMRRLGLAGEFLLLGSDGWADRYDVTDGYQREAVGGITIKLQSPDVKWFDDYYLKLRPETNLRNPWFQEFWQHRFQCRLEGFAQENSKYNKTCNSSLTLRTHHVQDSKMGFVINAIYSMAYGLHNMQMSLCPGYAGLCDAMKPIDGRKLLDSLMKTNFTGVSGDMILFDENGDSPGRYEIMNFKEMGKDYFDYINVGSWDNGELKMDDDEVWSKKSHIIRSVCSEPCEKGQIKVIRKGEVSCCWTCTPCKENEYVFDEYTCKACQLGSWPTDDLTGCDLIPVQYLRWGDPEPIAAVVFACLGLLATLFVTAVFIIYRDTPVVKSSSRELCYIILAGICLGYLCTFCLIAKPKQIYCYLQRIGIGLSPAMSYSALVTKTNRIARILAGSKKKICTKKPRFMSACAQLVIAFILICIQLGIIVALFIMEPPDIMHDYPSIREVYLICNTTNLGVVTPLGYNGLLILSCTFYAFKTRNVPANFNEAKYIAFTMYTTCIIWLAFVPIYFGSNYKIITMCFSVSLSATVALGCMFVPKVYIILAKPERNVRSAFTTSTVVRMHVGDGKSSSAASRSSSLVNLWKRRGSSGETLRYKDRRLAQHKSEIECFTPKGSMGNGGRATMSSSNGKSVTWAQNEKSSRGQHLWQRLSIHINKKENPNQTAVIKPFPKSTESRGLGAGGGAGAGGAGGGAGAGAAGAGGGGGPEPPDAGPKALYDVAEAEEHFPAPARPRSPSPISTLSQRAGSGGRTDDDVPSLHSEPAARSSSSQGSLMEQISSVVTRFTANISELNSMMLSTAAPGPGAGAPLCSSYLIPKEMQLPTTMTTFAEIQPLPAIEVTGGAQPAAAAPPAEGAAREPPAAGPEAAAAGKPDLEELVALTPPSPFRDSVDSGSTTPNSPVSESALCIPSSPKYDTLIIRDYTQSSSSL

Structure (SMILES)	IC50 [nM]	mGluR5-receptor (% inhibition 10 μM) in pigs [%]
O=C(C#Cc1ccc(F)cc1F)N1CCN(c2nccs2)CC1 [CCC22, 4-(Thiazol-2-yl)-1-(3-(2,4-difluorophenyl)propiolyl)piperazine]	10500	
Cl.O=C(C#Cc1ccccc1C(F)(F)F)N1CCN(c2nccs2)CC1 [Example AAA57, 4-(Thiazol-2-yl)-1-(3-(2-trifluoromethylphenyl)propiolyl)piperazine hydrochloride]		81
O=C(C#Cc1ccccc1)N1CCN(c2nc(-c3ccccc3)cs2)CC1 [Example AAA99, 4-(4-Phenylthiazol-2-yl)-1-(3-phenylpropiolyl)piperazine]		87
C[C@H]1CN(c2nccs2)CCN1C(=O)C#Cc1ccccc1 [Example AAA64, (S)-2-Methyl-4-(thiazol-2-yl)-1-(3-phenylpropiolyl)piperazine]		72
O=C(C#Cc1cccc(F)c1)N1CCN(c2nccs2)CC1 [Example AAA22, 4-(Thiazol-2-yl)-1-(3-(3-fluorophenyl)propiolyl)piperazine]		86
N#Cc1ccccc1C#CC(=O)N1CCN(c2nccs2)CC1 [Example AAA15, 4-(Thiazol-2-yl)-1-(3-(2-cyanophenyl)propiolyl)piperazine]		54
O=C(C#Cc1cccc([N+](=O)[O-])c1)N1CCN(c2nccs2)CC1 [Example AAA28, 4-(Thiazol-2-yl)-1-(3-(3-nitrophenyl)propiolyl)piperazine]		82
Cc1csc(C#CC(=O)N2CCN(c3nccs3)CC2)c1 [AAA00118, 4-(Thiazol-2-yl)-1-(3-(4-methylthiophen-2-yl)propiolyl)piperazine]	93	
CC(=O)Nc1cccc(C#CC(=O)N2CCN(c3nccs3)CC2)c1 [Example AAA44, 4-(Thiazol-2-yl)-1-(3-(3-acetaminophenyl)propiolyl)piperazine]		30
Cc1ccc(C#CC(=O)N2CCN(c3ncc(C)s3)CC2)cc1 [CCC33, 4-(5-Methylthiazol-2-yl)-1-(3-(tol-4-yl)propiolyl)piperazine]		43
O=C(C#Cc1ccccc1F)N1CCN(c2nc(-c3ccccc3)ns2)CC1 [CCC3, 4-(3-Phenyl-1,2,4-thiadiazol-5-yl)-1-(3-(2-fluorophenyl)propiolyl)piperazine]		28
O=C(C#Cc1ccccn1)N1CCN(c2nccs2)CC1 [Example AAA32, 4-(Thiazol-2-yl)-1-(3-pyrid-2-ylpropiolyl)piperazine]		57
O=C(C#Cc1ccccc1)N1CCN(c2nccs2)CC1c1ccccc1 (centres unmarked) [Example AAA72, 2-Phenyl-4-(thiazol-2-yl)-1-(3-phenylpropiolyl)piperazine]		81
O=C(C#Cc1ccncc1)N1CCN(c2nccs2)CC1 [Example AAA34, 4-(Thiazol-2-yl)-1-(3-pyrid-4-ylpropiolyl)piperazine]		71
Cc1cnc(N2CCN(C(=O)C#Cc3ccccc3)CC2)s1 [Example AAA88, 4-(5-Methylthiazol-2-yl)-1-(3-phenylpropiolyl)piperazine]		94
CCC1CN(c2nccs2)CCN1C(=O)C#Cc1ccccc1 (centres unmarked) [Example AAA71, 2-Ethyl-4-(thiazol-2-yl)-1-(3-phenylpropiolyl)piperazine]	38	
O=C(C#Cc1cccnc1)N1CCN(c2nccs2)CC1 [Example AAA33, 4-(Thiazol-2-yl)-1-(3-pyrid-3-ylpropiolyl)piperazine]		50
N#Cc1cc(C#CC(=O)N2CCN(c3nccs3)CC2)ccc1F [Example AAA41, 4-(Thiazol-2-yl)-1-(3-(3-cyano-4-fluorophenyl)propiolyl)piperazine]		78

Structure (SMILES)	IC50 [nM]	mGluR5-receptor (% inhibition 10 μM) in pigs [%]
COc1ccccc1C#CC(=O)N1CCN(c2nccs2)CC1 [Example AAA12, 4-(Thiazol-2-yl)-1-(3-(2-methoxyphenyl)propiolyl)piperazine]		34
COc1ccc(Br)c(C#CC(=O)N2CCN(c3nccs3)CC2)c1 [CCC23, 4-(Thiazol-2-yl)-1-(3-(2-bromo-5-methoxyphenyl)propiolyl)piperazine]		30
C#Cc1cccc(C#CC(=O)N2CCN(c3nccs3)CC2)c1 [Example AAA00117, 4-(Thiazol-2-yl)-1-(3-(3-ethynylphenyl)propiolyl)piperazine]	26	
O=C(C#Cc1ccco1)N1CCN(c2nccs2)CC1 [Example AAA73, 4-(Thiazol-2-yl)-1-(3-(2-furyl)propiolyl)piperazine]		74
O=C(C#Cc1ccccc1)N1CCN(c2nc(Br)cs2)CC1 [Example AAA97, 4-(4-Bromothiazol-2-yl)-1-(3-phenylpropiolyl)piperazine]	720	
Cc1cccc(C#CC(=O)N2CCN(c3nccs3)CC2)c1F [Example AAA00111, 4-(Thiazol-2-yl)-1-(3-(2-fluoro-3-methylphenyl)propiolyl)piperazine]		31
COc1nsc(N2CCN(C(=O)C#Cc3ccccc3)CC2)n1 [Example AAA00102, 4-(3-Methoxy-1,2,4-thiadiazol-5-yl)-1-(3-phenylpropiolyl)piperazine]		61
COc1cccc(C#CC(=O)N2CCN(c3nccs3)CC2)c1 [Example AAA13, 4-(Thiazol-2-yl)-1-(3-(3-methoxyphenyl)propiolyl)piperazine]		87
O=C(C#Cc1cccc(O)c1)N1CCN(c2nccs2)CC1 [Example AAA43, 4-(Thiazol-2-yl)-1-(3-(3-hydroxyphenyl)propiolyl)piperazine]		83
O=C(C#Cc1ccc(O)cc1)N1CCN(c2nccs2)CC1 [Example AAA5, 4-(Thiazol-2-yl)-1-(3-(4-hydroxyphenyl)propiolyl)piperazine]		35
CCc1cccc(C#CC(=O)N2CCN(c3nccs3)CC2)c1 [Example AAA00120, 4-(Thiazol-2-yl)-1-(3-(3-ethylphenyl)propiolyl)piperazine]	260	
CC(C)(C)C1CN(c2nccs2)CCN1C(=O)C#Cc1ccccc1 (centres unmarked) [AAA00121, 2-tert-Butyl-4-(thiazol-2-yl)-1-(3-phenylpropiolyl)piperazine]	110	
CC1CN(c2nccs2)CCN1C(=O)C#Cc1cccc(C#N)c1 (centres unmarked) [AAA00123, 2-Methyl-4-(thiazol-2-yl)-1-(3-(3-cyanophenyl)propiolyl)piperazine]	19	
CCCCCC#CC(=O)N1CCN(c2nccs2)CC1 [Example AAA60, 4-(Thiazol-2-yl)-1-(3-pentylpropiolyl)piperazine]	1850	
O=C(C#Cc1ccccc1O)N1CCN(c2nccs2)CC1 [Example AAA4, 4-(Thiazol-2-yl)-1-(3-(2-hydroxyphenyl)propiolyl)piperazine]	450	
Cc1cc(F)cc(C#CC(=O)N2CCN(c3nccs3)CC2)c1 [Example AAA00110, 4-(Thiazol-2-yl)-1-(3-(3-fluoro-5-methylphenyl)propiolyl)piperazine]	1390	
C[C@@H]1CN(c2nccs2)C[C@H](C)N1C(=O)C#Cc1ccccc1 [Example AAA75, cis-2,6-Dimethyl-4-(thiazol-2-yl)-1-(3-phenylpropiolyl)piperazine]		97
